Data on 3 molecules can be found in patent US20260176320A1, “MODULATORS OF G-PROTEIN COUPLED RECEPTORS” (priority 2018, published 2026).

Molecules are shown by their SMILES. Like-named read-outs stand apart in the source and are kept apart here. Bounds are passed on as bounds.

One assay addresses GLP-1R (Homo sapiens, UniProt P43220). The assay is described as follows: HitHunter cAMP assay (GLP-1R). Format: cell-based. Conditions: cAMP; for Emax: read-out: (Emax) GLP-1R; for EC50: read-out: EC50 GLP-1R/nM. Here is the method: (§1) Suspension cells were harvested and resuspended in 1×HBSS (+10 mM HEPES, 625 μM IBMX, 0.2% BSA) according to the following procedure: 5 μL of 2× cell suspension+1× antibody were added to each well, where the optimal cell density was 10,000 cells per well in a low volume 384-well plate. Agonist serial dilutions in a separate 384 well dilution plate in a 22-point series of 2× dilutions of agonist in DMSO were performed as follows. 80 μL of the highest concentration of Agonist/DMSO was added to well No. 1. 40 μL was removed from well No. 1 and added it to well No. 2, followed by gentle mixing. […] This process was repeated until well No. 22. Additional serial dilutions for additional agonists were set up in a similar manner. 50 nL of each 2× agonist serial dilution was added in duplicate to the designated agonist rows of the assay plate using the Labcyte ECHO. Assay plate was incubated for 30 minutes at room temperature. Following agonist incubation, 5 μL of cAMP Antibody Reagent was added to all wells. […] Plates were spun down briefly. Assay plate was incubated for 1 hour at room temperature in the dark for the immunocompetition reaction to occur. […] Plates were spun down briefly. Assay plate was incubated O/N at room temperature in the dark. Samples were read on Tecan i-control plate reader using luminescence mode with 300 ms integration time. Data analysis was performed using GraphPad Prism.

The next assay concerns the target T1, GIP-R (Homo sapiens, UniProt P48546).
T1 sequence (P48546 22-466): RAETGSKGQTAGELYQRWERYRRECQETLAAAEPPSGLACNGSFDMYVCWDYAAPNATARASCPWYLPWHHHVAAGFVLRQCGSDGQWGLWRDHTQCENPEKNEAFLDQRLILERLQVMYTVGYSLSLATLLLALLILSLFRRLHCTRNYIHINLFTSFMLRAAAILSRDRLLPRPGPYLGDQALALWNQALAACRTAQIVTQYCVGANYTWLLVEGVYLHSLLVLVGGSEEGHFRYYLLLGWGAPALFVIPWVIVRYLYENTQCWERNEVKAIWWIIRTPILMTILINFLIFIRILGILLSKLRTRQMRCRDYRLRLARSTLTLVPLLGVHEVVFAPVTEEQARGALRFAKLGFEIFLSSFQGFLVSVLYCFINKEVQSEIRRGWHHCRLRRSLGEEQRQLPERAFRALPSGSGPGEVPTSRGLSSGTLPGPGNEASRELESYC
The assay is described as follows: HitHunter cAMP assay (GIP-R). Conditions: cAMP; for EC50: read-out: EC50 GIP-R/nM; for Emax: read-out: (Emax) GIP-R. Format: cell-based. Here is the method:
as §1

GLP-1R, sequence (P43220 24-463): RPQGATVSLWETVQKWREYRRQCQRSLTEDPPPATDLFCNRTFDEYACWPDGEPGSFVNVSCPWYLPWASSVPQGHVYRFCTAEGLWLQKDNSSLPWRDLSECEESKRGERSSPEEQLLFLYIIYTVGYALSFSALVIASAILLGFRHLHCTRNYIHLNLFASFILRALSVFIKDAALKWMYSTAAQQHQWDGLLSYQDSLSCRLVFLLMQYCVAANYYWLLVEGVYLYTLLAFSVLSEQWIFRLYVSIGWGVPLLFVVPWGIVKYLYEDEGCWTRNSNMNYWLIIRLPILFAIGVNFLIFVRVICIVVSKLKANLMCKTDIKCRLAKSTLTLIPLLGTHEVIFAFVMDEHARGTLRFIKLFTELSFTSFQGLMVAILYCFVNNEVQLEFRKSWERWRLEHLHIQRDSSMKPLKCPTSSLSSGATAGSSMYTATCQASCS

Take `CC[C@H](C)[C@H](NC(=O)[C@H](CO)NC(=O)[C@H](Cc1ccc(O)cc1)NC(=O)[C@H](CC(=O)O)NC(=O)[C@H](CO)NC(=O)[C@@H](NC(=O)[C@H](Cc1ccccc1)NC(=O)[C@@H](NC(=O)CNC(=O)[C@H](CCC(=O)O)NC(=O)CC(C)CC(=O)NCCN1C(=O)CSC1=O)[C@@H](C)O)[C@@H](C)O)C(=O)N[C@@H](Cc1ccc(O)cc1)C(=O)N[C@@H](CC(C)C)C(=O)N[C@@H](CC(=O)O)C(=O)N[C@@H](CCCCN)C(=O)N[C@@H](CCC(N)=O)C(=O)N[C@@H](C)C(=O)N[C@@H](C)C(=O)NC(C)(C)C(=O)N[C@@H](CCC(=O)O)C(=O)N[C@@H](Cc1ccccc1)C(=O)N[C@H](C(=O)N[C@@H](CC(N)=O)C(=O)N[C@@H](Cc1c[nH]c2ccccc12)C(=O)N[C@@H](CC(C)C)C(=O)N[C@@H](CC(C)C)C(=O)N[C@@H](C)C(=O)NCC(=O)NCC(=O)N1CCC[C@H]1C(=O)N[C@@H](CO)C(=O)N[C@@H](CO)C(=O)NCC(=O)N[C@@H](C)C(=O)N1CCC[C@H]1C(=O)N1CCC[C@H]1C(=O)N1CCC[C@H]1C(=O)N[C@@H](CO)C(=O)N[C@@H](CCCCN)C(N)=O)C(C)C` (mixture of isomers) [Compound 120]: the Emax on GLP-1R (Table 3) and at GLP-1R (Table 3A) was 91% throughout. The EC50 on GLP-1R (Table 3) was 1 to 10 nM; on GLP-1R (Table 3A), 1 to 10 nM; on GIP-R (Table 3) it was > 1000 nM; at GIP-R (Table 3A), > 1000 nM. At GIP-R (read-out: (Emax) GIP-R at 1 μM, Table 3, at 1 μM), the Emax at 1 µM amounted to 6%.

With `CCCCCCCCCCCCCCCC(=O)N[C@@H](CCC(=O)NCCCC[C@H](NC(=O)[C@H](CO)NC(=O)[C@@H]1CCCN1C(=O)[C@@H]1CCCN1C(=O)[C@@H]1CCCN1C(=O)[C@H](C)NC(=O)CNC(=O)[C@H](CO)NC(=O)[C@H](CO)NC(=O)[C@@H]1CCCN1C(=O)CNC(=O)CNC(=O)[C@H](C)NC(=O)[C@H](CC(C)C)NC(=O)[C@H](CC(C)C)NC(=O)[C@H](Cc1c[nH]c2ccccc12)NC(=O)[C@H](CC(N)=O)NC(=O)[C@@H](NC(=O)[C@H](Cc1ccccc1)NC(=O)[C@H](CCC(=O)O)NC(=O)C(C)(C)NC(=O)[C@H](C)NC(=O)[C@H](C)NC(=O)[C@H](CCC(N)=O)NC(=O)[C@H](CCCCN)NC(=O)[C@H](CC(=O)O)NC(=O)[C@H](CC(C)C)NC(=O)[C@H](Cc1ccc(O)cc1)NC(=O)[C@@H](NC(=O)[C@H](CO)NC(=O)[C@H](Cc1ccc(O)cc1)NC(=O)[C@H](CC(=O)O)NC(=O)[C@H](CO)NC(=O)[C@@H](NC(=O)[C@H](Cc1ccccc1)NC(=O)[C@@H](NC(=O)CNC(=O)[C@H](CCC(=O)O)NC(=O)CSCC(=O)NCCN1C[C@H](C)CC1=O)[C@@H](C)O)[C@@H](C)O)[C@@H](C)CC)C(C)C)C(N)=O)C(=O)O` (single isomer, unassigned) [Compound 28], the Emax on GLP-1R (Table 3) came out at 101%; on GLP-1R (Table 3A), 101%; at GIP-R (Table 3) it was 57%; on GIP-R (Table 3A) it was 57%.

As for `CCCCCCCCCCCCCCCC(=O)N[C@@H](CCC(=O)NCCCC[C@H](NC(=O)[C@H](CO)NC(=O)[C@@H]1CCCN1C(=O)[C@@H]1CCCN1C(=O)[C@@H]1CCCN1C(=O)[C@H](C)NC(=O)CNC(=O)[C@H](CO)NC(=O)[C@H](CO)NC(=O)[C@@H]1CCCN1C(=O)CNC(=O)CNC(=O)[C@H](C)NC(=O)[C@H](CC(C)C)NC(=O)[C@H](CC(C)C)NC(=O)[C@H](Cc1c[nH]c2ccccc12)NC(=O)[C@H](CC(N)=O)NC(=O)[C@@H](NC(=O)[C@H](Cc1ccccc1)NC(=O)[C@H](CCC(=O)O)NC(=O)C(C)(C)NC(=O)[C@H](C)NC(=O)[C@H](C)NC(=O)[C@H](CCC(N)=O)NC(=O)[C@H](CCCCN)NC(=O)[C@H](CC(=O)O)NC(=O)[C@H](CC(C)C)NC(=O)[C@H](Cc1ccc(O)cc1)NC(=O)[C@@H](NC(=O)[C@H](CO)NC(=O)[C@H](Cc1ccc(O)cc1)NC(=O)[C@H](CC(=O)O)NC(=O)[C@H](CO)NC(=O)[C@@H](NC(=O)[C@H](Cc1ccccc1)NC(=O)[C@@H](NC(=O)CNC(=O)[C@H](CCC(=O)O)NC(=O)CSCC(=O)NCCN1C(=O)C[C@@H](CC)C1=O)[C@@H](C)O)[C@@H](C)O)[C@@H](C)CC)C(C)C)C(N)=O)C(=O)O` (single isomer, unassigned) [Compound 61], the Emax is 96% on GLP-1R (Table 3), 96% on GLP-1R (Table 3A), 56% at GIP-R (Table 3) and 56% at GIP-R (Table 3A).
